# Measured values: ChEMBL document CHEMBL1150754, “Chemical and pharmaceutical studies on medicinal plants in Paraguay. Geraniin, an angiotensin-converting enzyme inhibitor from "paraparai mi," Phyllanthus niruri” (J Nat Prod, 1988)
# Target: Angiotensin-converting enzyme (Homo sapiens, UniProt P12821)
# Assay: Inhibition of ACE by fluorometric assay
# Chain of Angiotensin-converting enzyme (P12821 whole entry): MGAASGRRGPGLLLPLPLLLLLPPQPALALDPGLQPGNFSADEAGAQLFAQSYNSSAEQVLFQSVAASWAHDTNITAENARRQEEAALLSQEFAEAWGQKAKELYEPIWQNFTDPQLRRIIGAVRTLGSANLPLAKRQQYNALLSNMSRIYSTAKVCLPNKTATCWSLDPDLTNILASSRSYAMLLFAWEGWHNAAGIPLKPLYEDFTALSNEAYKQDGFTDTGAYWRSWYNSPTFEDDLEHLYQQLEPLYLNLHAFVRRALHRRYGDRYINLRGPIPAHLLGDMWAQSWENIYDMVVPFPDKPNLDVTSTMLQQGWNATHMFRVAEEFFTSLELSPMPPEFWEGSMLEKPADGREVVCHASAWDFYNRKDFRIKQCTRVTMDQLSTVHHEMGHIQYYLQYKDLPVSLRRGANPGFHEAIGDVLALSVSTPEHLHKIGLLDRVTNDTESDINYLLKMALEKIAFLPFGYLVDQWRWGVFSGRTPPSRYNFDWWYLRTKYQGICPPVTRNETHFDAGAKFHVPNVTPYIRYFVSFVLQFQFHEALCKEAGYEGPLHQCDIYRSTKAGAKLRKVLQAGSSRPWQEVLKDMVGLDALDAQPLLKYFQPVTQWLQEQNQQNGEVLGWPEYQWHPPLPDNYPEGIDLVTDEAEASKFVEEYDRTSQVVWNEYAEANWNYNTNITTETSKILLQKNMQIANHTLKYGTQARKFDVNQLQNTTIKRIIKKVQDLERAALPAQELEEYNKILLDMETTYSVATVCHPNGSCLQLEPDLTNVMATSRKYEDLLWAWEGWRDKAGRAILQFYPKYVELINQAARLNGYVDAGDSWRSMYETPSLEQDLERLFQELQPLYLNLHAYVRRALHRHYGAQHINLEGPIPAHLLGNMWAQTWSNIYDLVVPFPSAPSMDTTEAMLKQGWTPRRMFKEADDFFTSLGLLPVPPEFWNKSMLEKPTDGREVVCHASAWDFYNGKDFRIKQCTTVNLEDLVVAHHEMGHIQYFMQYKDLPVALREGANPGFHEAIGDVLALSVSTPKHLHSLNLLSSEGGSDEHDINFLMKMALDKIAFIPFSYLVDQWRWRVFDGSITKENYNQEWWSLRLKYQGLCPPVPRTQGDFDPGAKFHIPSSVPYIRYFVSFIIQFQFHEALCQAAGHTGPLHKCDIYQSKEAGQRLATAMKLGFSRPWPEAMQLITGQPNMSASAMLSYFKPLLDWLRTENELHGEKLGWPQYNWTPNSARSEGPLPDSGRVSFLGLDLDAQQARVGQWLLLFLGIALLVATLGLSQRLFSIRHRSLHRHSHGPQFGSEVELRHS
row,IC50 [mM],SMILES
1,3.7,O=C(O[C@@H]1O[C@@H]2COC(=O)c3cc(O)c(O)c(O)c3-c3c(cc(O)c(O)c3O)C(=O)O[C@H]([C@H]1O)[C@@H]2O)c1cc(O)c(O)c(O)c1 [CORILAGIN]
2,5,O=c1oc2c(O)c(O)cc3c(=O)oc4c(O)c(O)cc1c4c23 [ELLAGIC ACID]
3,0.4,O=C1O[C@H]2[C@@H]3OC(=O)c4cc(O)c(O)c(O)c4-c4c(cc(O)c(O)c4O)C(=O)OC[C@H]2O[C@@H](OC(=O)c2cc(O)c(O)c(O)c2)[C@@H]3OC(=O)c2cc(O)c(O)c3c2[C@@H]2C1=CC(=O)[C@](O)(O3)C2(O)O [GERANIIN]

row,SMILES,IC50 [mM]
1,O=C(O)c1cc(O)c(O)c(O)c1 [GALLIC ACID],7.7
